Experimental data taken from patent US20060216333A1, “Methods related to the treatment of mucosal associated conditions” (priority 2003, published 2006).

Key:
Type in all cases: in vivo, rat
[1] = test system: rats; assay: Histologic examination of uterus, cervix, vagina, vulva and perineal skin, Example 11; conditions: 1% device removed after 2 hours
Procedure: Cotton devices were prepared as described in Example 1. The devices were saturated with either a solution containing 1% by weight of IRM 2 in 50/50 w/w isostearic acid/isopropyl myristate or with 50/50 w/w isostearic acid/isopropyl myristate (vehicle). Three groups of rats were dosed intravaginally 2 times a week for 3 weeks (Tuesday, Friday, Monday, Thursday, Monday, Thursday) with 1% IRM 2 device, vehicle device or with 1% IRM 2 cream. The devices were removed after 2 hours. The cream was left in place. Cytokines were assayed 4 hours post dosing of the final dose. Three more groups of rats were dosed intravaginally with 1% IRM 2 device, vehicle device or with 1% ERM 2 cream. The devices were removed after 2 hours. The cream was left in place. Cytokines were assayed 4 hours post dosing. […] The results are shown in the table below where each value is the mean value for 3 rats.
Groups of 3 rats were treated as described in Example 8 and necropsied 22 hours after the devices were removed. Uterus, cervix, vagina, vulva and perineal skin were collected, fixed and processed routinely for histologic examination.

[2] = test system: MCP-1; assay: Serum and vaginal tissue MCP-1 after intravaginal dosing of rats (ELISA); conditions: for MCP-1 Tissue: vaginal tissue, per 200 mg
Procedure: (§1) In the examples below the serum and intravaginal cytokine data were obtained using the following general test method.
(§2) Rats were acclimated to collars (Lomir Biomedical, Malone, N.Y.) around the neck on two consecutive days prior to actual dosing. Rats were collared to prevent removal of the device and ingestion of the drug. Animals were then dosed intravaginally with a removable device or with […] of cream. Single dosed rats received one intravaginal dose with samples collected at various times following dosing. Blood was collected by cardiac puncture. Blood was allowed to clot briefly at room temperature and serum was separated from the clot via centrifugation. The serum was stored at −20° C. until it was analyzed for cytokine concentrations.
(§3) Following blood collection, the rats were euthanized and their vaginal tract, including the cervix, was then removed and the tissue was weighed, placed in a sealed 1.8 mL cryovial and flash frozen in liquid nitrogen. The frozen vaginal tissue sample was then suspended in 1.0 mL of RPMI medium (Celox, St. Paul, Minn.) containing 10% fetal bovine serum (Atlas, Fort Collins, Colo.), 2 mM L-glutamine, penicillin/streptomycin and 2-mercaptoethanol (RPMI complete) combined with a protease inhibitor cocktail set III (Calbiochem, San Diego, Calif.). The tissue was homogenized using a Tissue Tearor (Biospec Products, Bartlesville, Okla.) for approximately one minute. The tissue suspension was then centrifuged at 2000 rpm for 10 minutes under refrigeration to pellet the debris, and the supernatant collected and stored at −20° C. until analyzed for cytokine concentrations.
(§4) ELISA kits for rat TNF were purchased from BD PharMingen (San Diego, Calif.) and the rat MCP-1 ELISA kits were purchased from BioSource Intl. (Camarillo, Calif.).
(§5) Both kits were performed according to manufacturer's specifications. Results for both TNF and MCP-1 are expressed in pg/mL and are normalized per 200 mg of tissue. […] “Post dosing” means after treatment initiation. For example, if a device was inserted a time 0 hours and removed at 2 hours and cytokines were assayed at 4 hours, then the cytokines were assayed at 4 hours post dosing.

[3] = test system: TNF; assay: Serum and vaginal tissue TNF after intravaginal dosing of rats (ELISA); conditions: for TNF Tissue: vaginal tissue, per 200 mg
Procedure: as §1, §2, §3, §4, §5

[4] = Multiple dose (2 times a week for 3 weeks)
[5] = 4 hours post dosing, 1% in 50/50 ISA/IPM, cotton pellet device removed after 2 hours, Example 6
[6] = 4 hours post dosing, device 1.0% in 50/50 ISA/IPM, removed after 15 min, Example 4
[7] = 4 hours post dosing, device 1.0% in 50/50 ISA/IPM, removed after 30 min, Example 4
[8] = 4 hours post dosing, device 1.0% in 50/50 ISA/IPM, removed after 60 min, Example 4
[9] = 4 hours post dosing, device 1.0% in 50/50 ISA/IPM, removed after 120 min, Example 4
[10] = 4 hours post dosing, single dose, 1% in 50/50 ISA/IPM cotton device removed after 2 hours, Example 8
[11] = 4 hours post final dose, multiple dose, 2 times a week for 3 weeks, 1% in 50/50 ISA/IPM cotton device removed after 2 hours, Example 8
[12] = 2 hr post dose, 5% in 50/50 ISA/IPM, cotton pellet device removed after 2 hours, Example 7
[13] = 4 hr post dose, 5% in 50/50 ISA/IPM, cotton pellet device removed after 2 hours, Example 7
[14] = 6 hr post dose, 5% in 50/50 ISA/IPM, cotton pellet device removed after 2 hours, Example 7

Structure (SMILES): Cc1nc2c(N)nc3ccccc3c2n1CC(C)(C)O [IRM 2, 4-amino-α,α,2-trimethyl-1H-imidazo[4,5-c]quinoline-1-ethanol]
- Lesion incidence: Cervix, Cavitation (epithelium) [1, 4]: 0/3
- Lesion incidence: Cervix, Inflammation [1, 4]: 1/3
- Lesion incidence: Perineal skin, Exudate on surface, epidermis [1, 4]: 0/3
- Lesion incidence: Perineal skin, Inflammation, superficial dermis [1, 4]: 1/3
- Lesion incidence: Perineal skin, Spongiosis, epidermis [1, 4]: 1/3
- Lesion incidence: Perineal skin, Subcorneal pustules, epidermis [1, 4]: 1/3
- Lesion incidence: Vagina, Edema, lamina propria [1, 4]: 0/3
- Lesion incidence: Vagina, Inflammation, lamina propria [1, 4]: 3/3
- Lesion incidence: Vulva, Edema, lamina propria [1, 4]: 1/3
- Lesion incidence: Vulva, Erosion [1, 4]: 0/3
- Lesion incidence: Vulva, Inflammation, lamina propria [1, 4]: 3/3
- Lesion incidence: Vulva, Intraepithelial pustules [1, 4]: 0/3
- Lesion incidence: Vulva, Necrosis, epithelium [1, 4]: 1/3
- Lesion incidence: Vulva, Spongiosis, epithelium [1, 4]: 1/3
- Lesion incidence: Vulva, Ulceration [1, 4]: 0/3
- Lesion incidence: Cervix, Cavitation (epithelium) ([1]; Single dose): 0/3
- Lesion incidence: Cervix, Inflammation ([1]; Single dose): 0/3
- Lesion incidence: Perineal skin, Exudate on surface, epidermis ([1]; Single dose): 0/3
- Lesion incidence: Perineal skin, Inflammation, superficial dermis ([1]; Single dose): 1/3
- Lesion incidence: Perineal skin, Spongiosis, epidermis ([1]; Single dose): 0/3
- Lesion incidence: Perineal skin, Subcorneal pustules, epidermis ([1]; Single dose): 0/3
- Lesion incidence: Vagina, Edema, lamina propria ([1]; Single dose): 0/3
- Lesion incidence: Vagina, Inflammation, lamina propria ([1]; Single dose): 3/3
- Lesion incidence: Vulva, Edema, lamina propria ([1]; Single dose): 0/3
- Lesion incidence: Vulva, Erosion ([1]; Single dose): 0/3
- Lesion incidence: Vulva, Inflammation, lamina propria ([1]; Single dose): 3/3
- Lesion incidence: Vulva, Intraepithelial pustules ([1]; Single dose): 1/3
- Lesion incidence: Vulva, Necrosis, epithelium ([1]; Single dose): 1/3
- Lesion incidence: Vulva, Spongiosis, epithelium ([1]; Single dose): 0/3
- Lesion incidence: Vulva, Ulceration ([1]; Single dose): 0/3
- MCP-1 Serum [2, 5]: 114 pg/mL
- MCP-1 Serum [2, 6]: 68 pg/mL
- MCP-1 Serum [2, 7]: 83 pg/mL
- MCP-1 Serum [2, 8]: 118 pg/mL
- MCP-1 Serum [2, 9]: 92 pg/mL
- MCP-1 Serum [2, 10]: 59 pg/mL
- MCP-1 Serum [2, 11]: 87 pg/mL
- MCP-1 Tissue [2, 5]: 1016 pg/mL
- MCP-1 Tissue [2, 6]: 433 pg/mL
- MCP-1 Tissue [2, 7]: 454 pg/mL
- MCP-1 Tissue [2, 8]: 889 pg/mL
- MCP-1 Tissue [2, 9]: 2462 pg/mL
- MCP-1 Tissue [2, 10]: 1390 pg/mL
- MCP-1 Tissue [2, 11]: 2353 pg/mL
- TNF Serum [3, 5]: 4 pg/mL
- TNF Serum [3, 6]: 0 pg/mL
- TNF Serum [3, 7]: 0 pg/mL
- TNF Serum [3, 8]: 0 pg/mL
- TNF Serum [3, 9]: 0 pg/mL
- TNF Serum [3, 10]: 0 pg/mL
- TNF Serum [3, 11]: 0 pg/mL
- TNF Tissue [3, 5]: 384 pg/mL
- TNF Tissue [3, 6]: 493 pg/mL
- TNF Tissue [3, 7]: 390 pg/mL
- TNF Tissue [3, 8]: 537 pg/mL
- TNF Tissue [3, 9]: 716 pg/mL
- TNF Tissue [3, 10]: 888 pg/mL
- TNF Tissue [3, 11]: 1075 pg/mL

Structure (SMILES): COCCc1nc2c(N)nc3ccccc3c2n1CCCCNS(C)(=O)=O [IRM 4, N-{4-[4-amino-2-(2-methoxyethyl)-1H-imidazo[4,5-c]quinolin-1-yl]butyl}methanesulfonamide]
- MCP-1 Serum [2, 5]: 105 pg/mL
- MCP-1 Tissue [2, 5]: 713 pg/mL
- TNF Serum [3, 5]: 0 pg/mL
- TNF Tissue [3, 5]: 109 pg/mL

Structure (SMILES): CCCCNC(=O)NCCCn1c(CCCC)nc2c(N)nc3ccccc3c21 [IRM 5]
- MCP-1 Serum [2, 5]: 108 pg/mL
- MCP-1 Tissue [2, 5]: 958 pg/mL
- TNF Serum [3, 5]: 1 pg/mL
- TNF Tissue [3, 5]: 358 pg/mL

Structure (SMILES): CCCCc1nc2c(N)nc3ccccc3c2n1CCS(=O)(=O)C(C)C [IRM 6, 2-butyl-1-{2-[(1-methylethyl)sulfonyl]ethyl}-1H-imidazo[4,5-c]quinolin-4-amine]
- MCP-1 Serum [2, 5]: 114 pg/mL
- MCP-1 Tissue [2, 5]: 1840 pg/mL
- TNF Serum [3, 5]: 1 pg/mL
- TNF Tissue [3, 5]: 491 pg/mL

Structure (SMILES): CCOCc1nc2c(N)nc3ccccc3c2n1CCNC(=O)NC(C)C [IRM 7, N-{2-[4-amino-2-(ethoxymethyl)-1H-imidazo[4,5-c]quinolin-1-yl]ethyl}-N′-isopropylurea]
- MCP-1 Serum [2, 12]: 92 pg/mL
- MCP-1 Serum [2, 5]: 93 pg/mL
- MCP-1 Serum [2, 13]: 112 pg/mL
- MCP-1 Serum [2, 14]: 140 pg/mL
- MCP-1 Tissue [2, 12]: 498 pg/mL
- MCP-1 Tissue [2, 5]: 642 pg/mL
- MCP-1 Tissue [2, 13]: 851 pg/mL
- MCP-1 Tissue [2, 14]: 670 pg/mL
- TNF Serum [3, 12]: 1 pg/mL
- TNF Serum [3, 5]: 0 pg/mL
- TNF Serum [3, 13]: 0 pg/mL
- TNF Serum [3, 14]: 2 pg/mL
- TNF Tissue [3, 12]: 512 pg/mL
- TNF Tissue [3, 5]: 219 pg/mL
- TNF Tissue [3, 13]: 460 pg/mL
- TNF Tissue [3, 14]: 267 pg/mL

Structure (SMILES): CCOCc1nc2c(N)nc3ccccc3c2n1CCOCCNC(=O)Nc1ccccc1 [IRM 8, N-(2-{2-[4-amino-2-(ethoxymethyl)-1H-imidazo[4,5-c]quinolin-1-yl]ethoxy}ethyl)-N′-phenylurea]
- MCP-1 Serum [2, 5]: 82 pg/mL
- MCP-1 Tissue [2, 5]: 331 pg/mL
- TNF Serum [3, 5]: 0 pg/mL
- TNF Tissue [3, 5]: 294 pg/mL

Structure (SMILES): Nc1nc2ccccc2c2c1ncn2CCOCc1ccncc1 [IRM 9, 1-[2-(pyridin-4-ylmethoxy)ethyl]-1H-imidazo[4,5-c]quinolin-4-amine]
- MCP-1 Serum [2, 12]: 85 pg/mL
- MCP-1 Serum [2, 13]: 131 pg/mL
- MCP-1 Serum [2, 14]: 180 pg/mL
- MCP-1 Tissue [2, 12]: 328 pg/mL
- MCP-1 Tissue [2, 13]: 1556 pg/mL
- MCP-1 Tissue [2, 14]: 850 pg/mL
- TNF Serum [3, 12]: 30 pg/mL
- TNF Serum [3, 13]: 4 pg/mL
- TNF Serum [3, 14]: 8 pg/mL
- TNF Tissue [3, 12]: 597 pg/mL
- TNF Tissue [3, 13]: 697 pg/mL
- TNF Tissue [3, 14]: 248 pg/mL

Structure (SMILES): CCCCc1nc2c(N)nc3ccccc3c2n1CCCS(C)(=O)=O [IRM 10, 2-butyl-1-[3-(methylsulfonyl)propyl]-1H-imidazo[4,5-c]quinoline-4-amine]
- MCP-1 Serum [2, 12]: 111 pg/mL
- MCP-1 Serum [2, 13]: 160 pg/mL
- MCP-1 Serum [2, 14]: 155 pg/mL
- MCP-1 Tissue [2, 12]: 739 pg/mL
- MCP-1 Tissue [2, 13]: 1440 pg/mL
- MCP-1 Tissue [2, 14]: 975 pg/mL
- TNF Serum [3, 12]: 16 pg/mL
- TNF Serum [3, 13]: 25 pg/mL
- TNF Serum [3, 14]: 10 pg/mL
- TNF Tissue [3, 12]: 1110 pg/mL
- TNF Tissue [3, 13]: 887 pg/mL
- TNF Tissue [3, 14]: 519 pg/mL
